Data published in ChEMBL document CHEMBL1201862, “PubChem BioAssay data set” (2004).
Calls of active or inactive are those of the source.

Experiments:
[1] = target: CAAX prenyl protease 2 (Saccharomyces cerevisiae S288c, UniProt Q03530); type: biochemical
[2] = target: T1, CAAX prenyl protease 2 (Homo sapiens, UniProt Q9Y256); experiment: human Rce1 protease inhibitors, dose response, biochemical, yeast membranes, quenched-peptide fluorescence, cherry-pick (AID 588849)
T1 sequence (Q9Y256 whole entry): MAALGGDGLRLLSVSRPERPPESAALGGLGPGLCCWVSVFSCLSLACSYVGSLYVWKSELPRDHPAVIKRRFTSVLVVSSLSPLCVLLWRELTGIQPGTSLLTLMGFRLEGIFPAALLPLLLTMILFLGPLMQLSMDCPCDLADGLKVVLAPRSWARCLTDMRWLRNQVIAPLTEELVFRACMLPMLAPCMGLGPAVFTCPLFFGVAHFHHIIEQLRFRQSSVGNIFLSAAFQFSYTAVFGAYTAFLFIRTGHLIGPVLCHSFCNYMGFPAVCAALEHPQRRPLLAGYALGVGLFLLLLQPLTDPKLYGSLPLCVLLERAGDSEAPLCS

[3] = target: Genome polyprotein (dengue virus type 2, UniProt P29990); experiment: Dengue-2 NS5 methyltransferase inhibitors, primary screen, biochemical, confirmation dose response (AID 588689); type: functional
Sequence of Genome polyprotein (P29990 2492-3391 limits assumed): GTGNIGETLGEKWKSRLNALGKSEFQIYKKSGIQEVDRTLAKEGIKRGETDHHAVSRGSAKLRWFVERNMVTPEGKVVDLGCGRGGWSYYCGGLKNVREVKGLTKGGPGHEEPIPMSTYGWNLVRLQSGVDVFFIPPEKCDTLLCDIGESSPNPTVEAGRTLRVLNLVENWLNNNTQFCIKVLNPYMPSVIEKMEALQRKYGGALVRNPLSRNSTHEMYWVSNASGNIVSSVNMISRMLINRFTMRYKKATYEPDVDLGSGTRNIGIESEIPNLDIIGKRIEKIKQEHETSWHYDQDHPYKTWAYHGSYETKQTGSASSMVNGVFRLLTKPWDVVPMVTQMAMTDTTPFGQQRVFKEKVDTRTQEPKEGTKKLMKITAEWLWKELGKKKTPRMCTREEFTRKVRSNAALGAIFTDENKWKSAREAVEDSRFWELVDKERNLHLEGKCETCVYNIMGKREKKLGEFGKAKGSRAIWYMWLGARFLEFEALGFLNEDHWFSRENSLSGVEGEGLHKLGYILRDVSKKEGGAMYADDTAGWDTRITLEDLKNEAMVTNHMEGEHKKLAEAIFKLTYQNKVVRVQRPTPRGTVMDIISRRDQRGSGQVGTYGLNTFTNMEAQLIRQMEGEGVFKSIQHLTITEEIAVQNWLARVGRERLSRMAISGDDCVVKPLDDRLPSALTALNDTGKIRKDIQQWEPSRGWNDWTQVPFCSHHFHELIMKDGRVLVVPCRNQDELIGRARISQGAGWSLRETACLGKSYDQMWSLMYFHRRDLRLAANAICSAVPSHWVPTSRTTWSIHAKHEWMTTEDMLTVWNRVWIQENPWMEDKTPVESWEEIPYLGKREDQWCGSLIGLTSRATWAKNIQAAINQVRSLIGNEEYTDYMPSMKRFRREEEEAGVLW

[4] = target: G-protein coupled receptor 55 (Homo sapiens, UniProt Q9Y2T6); experiment: GPR55 agonists via beta-arrestin recruitment, primary screen, imaging, U2OS cells, beta-arrestin-GFP redistribution (AID 1961); type: functional
Sequence of G-protein coupled receptor 55 (Q9Y2T6 whole entry, the tested form may be a part): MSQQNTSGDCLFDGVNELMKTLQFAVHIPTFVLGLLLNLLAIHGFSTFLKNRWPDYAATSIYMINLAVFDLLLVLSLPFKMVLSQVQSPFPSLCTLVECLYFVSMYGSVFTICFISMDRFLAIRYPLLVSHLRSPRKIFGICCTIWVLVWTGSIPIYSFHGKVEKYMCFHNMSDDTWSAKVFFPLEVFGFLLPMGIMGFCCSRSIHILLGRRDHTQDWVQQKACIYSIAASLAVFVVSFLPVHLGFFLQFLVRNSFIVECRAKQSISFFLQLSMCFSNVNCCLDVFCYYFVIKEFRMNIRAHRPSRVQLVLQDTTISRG

[5] = target: T2, Runt-related transcription factor 1/Core-binding factor subunit beta (Homo sapiens, UniProt Q01196+Q13951); experiment: Confirmation of compounds inhibiting the binding between the RUNX1 Runt domain and CBFb-SMMHC via a time resolved fluorescence resonance energy transfer (TR-FRET) assay. [Related pubchem assays (depositor defined):AID1434, AID1438, AID1496, AID1560, AID1645]; type: protein assay
T2 sequence (Q01196 whole entry, the tested form may be a part): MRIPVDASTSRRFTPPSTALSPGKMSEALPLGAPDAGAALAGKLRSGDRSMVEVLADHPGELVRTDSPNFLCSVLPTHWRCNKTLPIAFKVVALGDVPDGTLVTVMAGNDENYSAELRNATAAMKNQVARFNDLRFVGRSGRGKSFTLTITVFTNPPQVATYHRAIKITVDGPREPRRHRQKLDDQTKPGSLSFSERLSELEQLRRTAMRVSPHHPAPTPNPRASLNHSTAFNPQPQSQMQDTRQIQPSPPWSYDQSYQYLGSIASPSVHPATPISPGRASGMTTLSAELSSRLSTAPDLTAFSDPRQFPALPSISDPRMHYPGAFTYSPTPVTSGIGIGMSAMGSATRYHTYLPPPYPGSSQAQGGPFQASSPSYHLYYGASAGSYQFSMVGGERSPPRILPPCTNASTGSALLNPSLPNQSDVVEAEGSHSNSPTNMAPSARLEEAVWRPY
T2 sequence (Q13951 whole entry, the tested form may be a part): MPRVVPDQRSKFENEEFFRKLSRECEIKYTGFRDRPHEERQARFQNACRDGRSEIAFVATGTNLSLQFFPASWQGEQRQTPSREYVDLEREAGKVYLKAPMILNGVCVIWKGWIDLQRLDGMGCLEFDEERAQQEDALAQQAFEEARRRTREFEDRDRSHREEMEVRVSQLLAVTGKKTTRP

[6] = target: T2, Runt-related transcription factor 1/Core-binding factor subunit beta; experiment: inhibitors of RUNX1 Runt–CBFb-SMMHC binding, biochemical, TR-FRET (AID 1438); type: protein assay
[7] = target: T2, Runt-related transcription factor 1/Core-binding factor subunit beta; experiment: Confirmation of compounds inhibiting the binding between the RUNX1 Runt domain and CBFb-SMMHC via a fluorescence resonance energy transfer (FRET) assay. [Related pubchem assays (depositor defined):AID1434, AID1438, AID1496, AID1550, AID1645]; type: protein assay
[8] = target: Heat shock protein HSP 90-alpha (Homo sapiens, UniProt P07900); type: functional, organism-based
[9] = target: T3, Heat shock factor protein 1 (Mus musculus, UniProt P38532); experiment: HSF1 potentiators in luciferase reporter cells, confirmation, cell-based, NIH3T3, luminescence, dose retest (AID 435004); type: functional;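 further: stress induced by proteasome inhibitor MG132 added 30 min after compound; luciferase reporter driven by HSF1 response element in NIH3T3 cells; actives raise luminescence as potentiators of the MG132 stress response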
T3 sequence (P38532 whole entry): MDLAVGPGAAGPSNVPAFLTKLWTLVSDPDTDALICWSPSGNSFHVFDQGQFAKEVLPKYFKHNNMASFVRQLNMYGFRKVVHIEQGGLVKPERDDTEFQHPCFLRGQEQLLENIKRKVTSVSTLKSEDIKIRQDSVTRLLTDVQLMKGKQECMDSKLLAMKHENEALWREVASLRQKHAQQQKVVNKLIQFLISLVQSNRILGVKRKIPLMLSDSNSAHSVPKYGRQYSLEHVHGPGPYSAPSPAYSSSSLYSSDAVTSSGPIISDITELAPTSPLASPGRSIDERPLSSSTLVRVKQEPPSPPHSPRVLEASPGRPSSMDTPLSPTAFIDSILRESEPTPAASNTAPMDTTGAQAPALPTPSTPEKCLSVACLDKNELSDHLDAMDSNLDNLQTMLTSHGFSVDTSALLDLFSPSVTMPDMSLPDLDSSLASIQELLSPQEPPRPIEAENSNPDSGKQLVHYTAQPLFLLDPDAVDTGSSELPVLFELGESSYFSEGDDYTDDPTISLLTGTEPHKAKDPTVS

[10] = target: T2, Runt-related transcription factor 1/Core-binding factor subunit beta; experiment: inhibitors of RUNX1 Runt–CBFb-SMMHC binding, primary screen, biochemical, FRET, Cerulean-Runt, Venus-CBFb-SMMHC, uHTS (AID 1434); type: protein assay;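 further: partner is the CBFb-SMMHC leukemia fusion protein rather than wild-type CBFb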
[11] = target: Peroxisome proliferator-activated receptor gamma (Homo sapiens, UniProt P37231); experiment: PPARg partial agonists, dose response, cell-based, luminescence, assay provider (AID 504447); type: functional
Sequence of Peroxisome proliferator-activated receptor gamma (P37231 whole entry): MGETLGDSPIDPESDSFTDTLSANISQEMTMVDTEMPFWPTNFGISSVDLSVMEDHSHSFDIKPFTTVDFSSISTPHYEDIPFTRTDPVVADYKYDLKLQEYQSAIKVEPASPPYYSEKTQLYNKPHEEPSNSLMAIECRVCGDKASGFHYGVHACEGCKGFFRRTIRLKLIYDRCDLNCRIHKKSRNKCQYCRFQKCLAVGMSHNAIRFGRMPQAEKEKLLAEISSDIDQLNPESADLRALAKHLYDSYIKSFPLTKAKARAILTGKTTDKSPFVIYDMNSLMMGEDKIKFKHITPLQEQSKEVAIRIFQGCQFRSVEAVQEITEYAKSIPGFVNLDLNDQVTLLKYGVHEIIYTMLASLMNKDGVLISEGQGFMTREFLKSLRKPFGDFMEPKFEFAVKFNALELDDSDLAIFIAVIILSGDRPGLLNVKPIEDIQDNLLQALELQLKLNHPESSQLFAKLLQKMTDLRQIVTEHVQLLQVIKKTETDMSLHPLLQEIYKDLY

[12] = target: DNA damage-inducible transcript 3 protein (Mus musculus, UniProt P35639); type: functional, Cricetulus griseus
Sequence of DNA damage-inducible transcript 3 protein (P35639 whole entry): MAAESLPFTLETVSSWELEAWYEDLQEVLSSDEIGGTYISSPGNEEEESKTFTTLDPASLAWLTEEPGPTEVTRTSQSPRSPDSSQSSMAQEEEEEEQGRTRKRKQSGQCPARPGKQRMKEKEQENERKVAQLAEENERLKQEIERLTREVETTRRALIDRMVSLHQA

[13] = target: Hexokinase (Trypanosoma brucei, UniProt Q38C41); experiment: Confirmation assay for inhibitors of Trypanosoma brucei hexokinase 1-Analogue-first series. [Related pubchem assays (depositor defined):AID1430, AID1632, AID2516, AID2560, AID2579, AID2600, AID449725, AID492951]; type: functional
Sequence of Hexokinase (Q38C41 whole entry): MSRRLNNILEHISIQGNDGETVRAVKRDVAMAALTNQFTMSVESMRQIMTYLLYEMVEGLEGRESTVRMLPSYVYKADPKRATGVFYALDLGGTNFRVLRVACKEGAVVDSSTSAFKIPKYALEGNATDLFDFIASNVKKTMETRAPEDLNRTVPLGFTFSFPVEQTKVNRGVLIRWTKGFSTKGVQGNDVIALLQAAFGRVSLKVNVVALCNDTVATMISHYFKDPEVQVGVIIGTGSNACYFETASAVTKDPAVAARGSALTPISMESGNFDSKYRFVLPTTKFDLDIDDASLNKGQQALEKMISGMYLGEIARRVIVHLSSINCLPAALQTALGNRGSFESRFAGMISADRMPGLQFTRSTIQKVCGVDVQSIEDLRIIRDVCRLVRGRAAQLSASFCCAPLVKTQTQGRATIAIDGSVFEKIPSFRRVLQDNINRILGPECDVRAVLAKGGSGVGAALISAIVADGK

[14] = target: T4, Ubiquitin-conjugating enzyme E2 N (Homo sapiens, UniProt P61088); type: functional;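 further: Dose-response confirmation in a TR-FRET assay detecting UBC13-driven polyubiquitin chain formation, inhibition measured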
T4 sequence (P61088 whole entry): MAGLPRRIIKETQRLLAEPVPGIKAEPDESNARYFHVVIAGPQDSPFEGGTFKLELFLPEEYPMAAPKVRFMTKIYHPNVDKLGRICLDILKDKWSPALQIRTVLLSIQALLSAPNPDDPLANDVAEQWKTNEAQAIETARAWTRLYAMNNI

[15] = target: Dual specificity tyrosine-phosphorylation-regulated kinase 1A (Rattus norvegicus, UniProt Q63470); type: biochemical, Homo sapiens
[16] = target: Integrin alpha-4 (Homo sapiens, UniProt P13612); experiment: VLA-4 integrin allosteric ligands, SAR follow-up, cell-based, LIBS antibody binding, flow cytometry (AID 488791); type: functional
Sequence of Integrin alpha-4 (P13612 whole entry): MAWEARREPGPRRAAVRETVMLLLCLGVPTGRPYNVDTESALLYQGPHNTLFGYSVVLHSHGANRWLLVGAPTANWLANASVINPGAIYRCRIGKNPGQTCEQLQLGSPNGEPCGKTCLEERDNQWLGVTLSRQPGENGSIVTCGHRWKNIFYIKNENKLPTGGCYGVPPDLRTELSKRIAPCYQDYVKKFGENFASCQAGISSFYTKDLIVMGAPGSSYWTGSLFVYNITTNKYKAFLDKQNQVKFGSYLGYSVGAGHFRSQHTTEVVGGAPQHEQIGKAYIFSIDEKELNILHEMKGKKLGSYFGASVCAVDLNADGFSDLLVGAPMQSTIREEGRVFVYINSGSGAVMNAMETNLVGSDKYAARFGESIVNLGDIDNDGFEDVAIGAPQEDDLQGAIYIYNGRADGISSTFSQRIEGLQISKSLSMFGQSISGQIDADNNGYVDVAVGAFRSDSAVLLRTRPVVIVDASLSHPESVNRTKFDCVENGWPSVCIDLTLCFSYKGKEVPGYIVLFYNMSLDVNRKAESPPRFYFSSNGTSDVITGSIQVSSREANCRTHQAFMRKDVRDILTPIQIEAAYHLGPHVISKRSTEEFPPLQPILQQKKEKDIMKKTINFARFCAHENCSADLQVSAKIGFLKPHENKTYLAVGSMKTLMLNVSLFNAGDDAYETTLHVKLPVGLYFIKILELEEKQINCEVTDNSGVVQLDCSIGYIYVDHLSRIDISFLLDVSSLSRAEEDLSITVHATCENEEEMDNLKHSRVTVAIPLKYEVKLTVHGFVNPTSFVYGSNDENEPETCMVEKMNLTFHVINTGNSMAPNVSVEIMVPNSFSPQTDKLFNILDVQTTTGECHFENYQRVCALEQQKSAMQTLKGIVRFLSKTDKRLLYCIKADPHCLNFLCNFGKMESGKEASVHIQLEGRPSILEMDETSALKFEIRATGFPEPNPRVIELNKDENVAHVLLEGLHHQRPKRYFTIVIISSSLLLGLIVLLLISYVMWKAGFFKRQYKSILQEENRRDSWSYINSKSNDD

[17] = Luminescence Cell-Based Dose Retest to Confirm Inhibitors of Cancer Stem Cells. [Related pubchem assays (depositor defined):AID2717, AID2721]; type: functional, Homo sapiens; conditions: Homo sapiens

Sequence of CAAX prenyl protease 2 (Saccharomyces cerevisiae S288c, UniProt Q03530) (Q03530 whole entry): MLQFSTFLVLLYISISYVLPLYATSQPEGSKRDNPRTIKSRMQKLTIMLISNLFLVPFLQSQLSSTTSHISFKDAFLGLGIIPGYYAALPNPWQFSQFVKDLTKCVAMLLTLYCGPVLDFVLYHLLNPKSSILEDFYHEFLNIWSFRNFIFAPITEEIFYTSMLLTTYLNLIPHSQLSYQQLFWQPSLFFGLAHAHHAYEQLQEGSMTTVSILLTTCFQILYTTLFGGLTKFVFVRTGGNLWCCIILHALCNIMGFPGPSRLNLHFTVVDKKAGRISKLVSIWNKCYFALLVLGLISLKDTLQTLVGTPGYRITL

Q: What does the source list for `CN1c2ccccc2-c2nc3ccccc3n2C1c1ccncc1` (configuration not stated)?
A: AC50 [1]: 68.9 µM (active); AC50 [2]: 2.65 µM (active)

Q: For `O=C1C=CC(=O)N1N(c1ccccc1)c1ccccc1`, which IC50 [3] is on record?
A: 41.6 µM (active)

Q: What about the EC50 [4] of the same compound?
A: > 32 µM (inactive)

Q: What about the IC50 [5] of the same compound?
A: 16.5 µM (active)

Q: What about the IC50 [6] of the same compound?
A: 21.4 µM (active)

Q: And the IC50 [7]?
A: 10.3 µM (active)

Q: And the AC50 [8]?
A: 4.16 µM (active)

Q: What about the EC50 [9] of the same compound?
A: 4.95 µM (active)

Q: And the IC50 [10]?
A: 10.1 µM (active)

Q: For `CN1CCN(S(=O)(=O)c2ccc(Sc3nc4ccccc4[nH]3)c3nsnc23)CC1`, which EC50 [11] is on record?
A: 7.6 µM (active)

Q: With `CCOc1cccc(CN2CCN(c3cccc(C(F)(F)F)c3)CC2)c1O` as the compound, how does the “Absolute IC50 (CHOP)” value [12] read?
A: 10 µM

Q: With `COc1ccc(C(=O)NC(C(=O)O)c2ccccc2)cc1` (configuration not stated) as the compound, how does the IC50 [13] read?
A: > 25 µM (inactive)

Q: With `COc1cccc(-c2sc3ccccc3c2-c2ccc(OCCN3CCCC3)cc2)c1` as the compound, how does the IC50 [14] read?
A: > 20 µM (inactive)

Q: And the AC50 [15]?
A: 49.2 µM (active)

Q: What about the EC50 [16] of the same compound?
A: > 42.9 µM (inactive)

Q: What about the AC50 [17] of the same compound?
A: 2.58 µM (active)
